This note sets out measurements from patent publication US20250171459A1, “2-METHYL-4',5'-DIHYDROSPIRO[PIPERIDINE-4,7'-THIENO[2,3-C]PYRAN] DERIVATIVES AS INHIBITORS OF APOL1 AND METHODS OF USING SAME” (Vertex Pharmaceuticals Incorporated, priority 2022, published 2025).

The assay deals with T1, APOL1 (Homo sapiens, UniProt O14791).
T1 sequence (O14791 1-398 S342G/I384M): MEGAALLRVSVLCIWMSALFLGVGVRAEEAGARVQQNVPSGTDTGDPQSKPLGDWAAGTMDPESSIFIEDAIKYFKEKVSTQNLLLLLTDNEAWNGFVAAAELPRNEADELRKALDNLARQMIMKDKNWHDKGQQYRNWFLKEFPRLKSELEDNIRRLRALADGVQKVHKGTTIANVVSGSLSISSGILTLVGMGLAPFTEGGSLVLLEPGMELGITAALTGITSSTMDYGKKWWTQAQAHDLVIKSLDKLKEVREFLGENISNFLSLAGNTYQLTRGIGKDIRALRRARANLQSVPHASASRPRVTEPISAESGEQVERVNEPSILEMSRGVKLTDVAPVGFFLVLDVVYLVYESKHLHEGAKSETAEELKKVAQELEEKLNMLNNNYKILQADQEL
The assay can be described thus: MultiTox-Fluor Multiplex Cytotoxicity Assay in tet-inducible APOL1 T-REx-HEK293 cells (cell rescue, ratio of dead to live cells). The assay is classed as cell-based. The following applies: tet-inducible transgenic APOL1 T-REx-HEK293 cell lines, 50 ng/mL tet, 24 hours; read-out: IP50 (i.e., IC50 for cell proliferation). The method, boiled down: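 T-REx-HEK293 cells with tet-inducible APOL1 were treated with compound (10 μM top, 10-point 3-fold dilution, duplicate) plus 50 ng/mL tetracycline for 24 h at 37° C, in DMEM with 2% tet-free FBS. MultiTox-Fluor protease signals gave a dead/live ratio, normalized to no tet (100% viability) and tet alone (0%).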
As to `C[C@H]1C[C@@]2(CCN1C[C@H](O)C(N)=O)OCCc1cc(Cl)sc12` [Compound 708, (2S)-3-[(2′S, 7R)-2-chloro-2′-methyl-spiro[4,5-dihydrothieno[2,3-c]pyran-7,4′-piperidine]-1′-yl]-2-hydroxy-propanamide], the IC50 was in the range of 100 to 500 nM.
For `C[C@H]1C[C@@]2(CCN1C[C@@H](O)C(N)=O)OCCc1cc(Cl)sc12` [Compound 709, (2R)-3-[(2′S, 7R)-2-chloro-2′-methyl-spiro[4,5-dihydrothieno[2,3-c]pyran-7,4′-piperidine]-1′-yl]-2-hydroxy-propanamide], the IC50 lay within 100 to 500 nM.
The value for `CNC(=O)[C@@H](O)CN1CC[C@]2(C[C@@H]1C)OCCc1cc(Cl)sc12` [Compound 710, (2S)-3-[(2′S, 7R)-2-chloro-2′-methyl-spiro[4,5-dihydrothieno[2,3-c]pyran-7,4′-piperidine]-1′-yl]-2-hydroxy-N-methyl-propanamide] was 500 to 1000 nM; that for `C[C@H]1C[C@@]2(CCN1C[C@H](O)C(=O)N(C)C)OCCc1cc(Cl)sc12` [Compound 711, (2S)-3-[(2′S, 7R)-2-chloro-2′-methyl-spiro[4,5-dihydrothieno[2,3-c]pyran-7,4′-piperidine]-1′-yl]-2-hydroxy-N,N-dimethyl-propanamide] was 100 to 500 nM; that for `C[C@H]1C[C@@]2(CCN1Cc1cccc(Cl)c1O)OCCc1c2sc(Cl)c1CO` [Compound 712, 2-chloro-6-[[(2′S, 7R)-2-chloro-3-(hydroxymethyl)-2′-methyl-spiro[4,5-dihydrothieno[2,3-c]pyran-7,4′-piperidine]-1′-yl]methyl]phenol] was 500 to 1000 nM.
The result for `C[C@H]1C[C@@]2(CCN1Cc1ccccc1F)OCCc1c2sc(Cl)c1CO` [Compound 713] reads 100 to 500 nM; that for `C[C@H]1C[C@@]2(CCN1Cc1ccc(N3CCCC3=O)cc1)OCCc1c2sc(Cl)c1CO` [Compound 714], below 100 nM; that for `C[C@H]1C[C@@]2(CCN1Cc1ccc(OCCO)cc1)OCCc1c2sc(Cl)c1CO` [Compound 715], below 100 nM.
For the compound `COc1cc(OCC(N)=O)ccc1CN1CC[C@]2(C[C@@H]1C)OCCc1c2sc(Cl)c1CO` [Compound 716], the IC50 lay within 100 to 500 nM.
The result for `Cc1nccn1-c1ccc(CN2CC[C@]3(C[C@@H]2C)OCCc2c3sc(Cl)c2CO)cc1` [Compound 717] reads 100 to 500 nM.
Take `C[C@H]1C[C@@]2(CCN1Cc1cccc(OCC(N)=O)c1)OCCc1c2sc(Cl)c1CO` [Compound 718]: the IC50 is 100 to 500 nM.
The value for `C[C@H]1C[C@@]2(CCN1Cc1cn(C)nn1)OCCc1c2sc(Cl)c1CO` [Compound 719] was 100 to 500 nM; that for `COc1cnc(CN2CC[C@]3(C[C@@H]2C)OCCc2c3sc(Cl)c2CO)cn1` [Compound 720] was 100 to 500 nM.
Turning to `C[C@H]1C[C@@]2(CCN1CCCn1cccn1)OCCc1c2sc(Cl)c1CO` [Compound 721], the IC50 fell in the range of 500 to 1000 nM.
As to `Cc1cncc(CN2CC[C@]3(C[C@@H]2C)OCCc2c3sc(Cl)c2CO)c1` [Compound 723], the IC50 was 100 to 500 nM.
The value for `C[C@H]1C[C@@]2(CCN1Cc1cccc(OCCO)c1)OCCc1c2sc(Cl)c1CO` [Compound 725] was 100 to 500 nM; that for `C[C@H]1C[C@@]2(CCN1Cc1ccc(F)cn1)OCCc1c2sc(Cl)c1CO` [Compound 726] was 500 to 1000 nM; that for `COc1cncc(CN2CC[C@]3(C[C@@H]2C)OCCc2c3sc(Cl)c2CO)c1` [Compound 727] was 100 to 500 nM.
The value for `C[C@H]1C[C@@]2(CCN1Cc1cnc(N3CCOCC3)nc1)OCCc1c2sc(Cl)c1CO` [Compound 728] was below 100 nM; that for `COc1ncc(CN2CC[C@]3(C[C@@H]2C)OCCc2c3sc(Cl)c2CO)cn1` [Compound 729] was below 100 nM.
The result for `CNC(=O)c1cccc(CN2CC[C@]3(C[C@@H]2C)OCCc2c3sc(Cl)c2CO)c1` [Compound 730] reads 100 to 500 nM; that for `Cc1cncc(N2CCC(CN3CC[C@]4(C[C@@H]3C)OCCc3c4sc(Cl)c3CO)CC2)n1` [Compound 731], 500 to 1000 nM; that for `Cc1ccc(CN2CC[C@]3(C[C@@H]2C)OCCc2c3sc(Cl)c2CO)c(C)n1` [Compound 732], 500 to 1000 nM.
On to `CCc1ncc(CN2CC[C@]3(C[C@@H]2C)OCCc2c3sc(Cl)c2CO)cn1` [Compound 733], for which the IC50 fell in the range of 100 to 500 nM.
Turning to `C[C@H]1C[C@@]2(CCN1Cc1ccc(S(C)(=O)=O)nc1)OCCc1c2sc(Cl)c1CO` [Compound 734], the IC50 lay in the range of 100 to 500 nM.
Regarding `C[C@H]1C[C@@]2(CCN1Cc1ccncc1F)OCCc1c2sc(Cl)c1CO` [Compound 735], the IC50 was in the range of 500 to 1000 nM.
In the case of `Cc1ncccc1CN1CC[C@]2(C[C@@H]1C)OCCc1c2sc(Cl)c1CO` [Compound 736], the IC50 lay within 500 to 1000 nM.
The value for `C[C@H]1C[C@@]2(CCN1Cc1cnccn1)OCCc1c2sc(Cl)c1CO` [Compound 737] was 500 to 1000 nM; that for `Cc1ncc(CN2CC[C@]3(C[C@@H]2C)OCCc2c3sc(Cl)c2CO)cn1` [Compound 738] was 100 to 500 nM; that for `Cc1cccc(CN2CC[C@]3(C[C@@H]2C)OCCc2c3sc(Cl)c2CO)n1` [Compound 739] was 500 to 1000 nM.
The result for `C[C@H]1C[C@@]2(CCN1Cc1ncn3ccccc13)OCCc1c2sc(Cl)c1CO` [Compound 740] reads 500 to 1000 nM; that for `COc1cc(CN2CC[C@]3(C[C@@H]2C)OCCc2c3sc(Cl)c2CO)ccc1OCC(N)=O` [Compound 742], below 100 nM; that for `C[C@H]1C[C@@]2(CCN1Cc1ccc(C(=O)N(C)C)cc1)OCCc1c2sc(Cl)c1CO` [Compound 743], 100 to 500 nM.
The result for `COc1ccc(CN2CC[C@]3(C[C@@H]2C)OCCc2c3sc(Cl)c2CO)cc1OCC(N)=O` [Compound 744] reads below 100 nM.
Consider `COCCc1ncc(CN2CC[C@]3(C[C@@H]2C)OCCc2c3sc(Cl)c2CO)cn1` [Compound 745], for which the IC50 was 100 to 500 nM.
The value for `C[C@H]1C[C@@]2(CCN1CC1(C)COC1)OCCc1c2sc(Cl)c1CO` [Compound 746] was 500 to 1000 nM; that for `C[C@H]1C[C@@]2(CCN1CC1CCN(S(C)(=O)=O)CC1)OCCc1c2sc(Cl)c1CO` [Compound 748] was 100 to 500 nM; that for `C[C@H]1C[C@@]2(CCN1Cc1cnn(CCS(C)(=O)=O)c1)OCCc1c2sc(Cl)c1CO` [Compound 754] was below 100 nM.
The value for `C[C@H]1C[C@@]2(CCN1Cc1ccc(F)cc1)OCCc1c2sc(Cl)c1CO` [Compound 755] was 100 to 500 nM; that for `C[C@H]1C[C@@]2(CCN1Cc1cccc(F)c1)OCCc1c2sc(Cl)c1CO` [Compound 756] was 100 to 500 nM; that for `C[C@H]1C[C@@]2(CCN1Cc1cccnc1)OCCc1c2sc(Cl)c1CO` [Compound 757] was below 100 nM.
In the case of `C[C@H]1C[C@@]2(CCN1Cc1ccccn1)OCCc1c2sc(Cl)c1CO` [Compound 758], the IC50 fell in the range of 500 to 1000 nM.
The result for `CC(C)Cn1cc(CN2CC[C@]3(C[C@@H]2C)OCCc2c3sc(Cl)c2CO)cn1` [Compound 759, [(2′S, 7R)-2-chloro-1′-[(1-isobutylpyrazol-4-yl)methyl]-2′-methyl-spiro[4,5-dihydrothieno[2,3-c]pyran-7,4′-piperidine]-3-yl]methanol] reads 100 to 500 nM; that for `CCn1cc(CN2CC[C@]3(C[C@@H]2C)OCCc2c3sc(Cl)c2CO)cn1` [Compound 760], 100 to 500 nM.
As to `C[C@H]1C[C@@]2(CCN1Cc1cnn(CC3CCOCC3)c1)OCCc1c2sc(Cl)c1CO` [Compound 761], the IC50 was in the range of 100 to 500 nM.
The result for `COCc1c(Cl)sc2c1CCO[C@@]21CCN(Cc2cnn(CCS(C)(=O)=O)c2)[C@@H](C)C1` [Compound 762, (2′S, 7R)-2-chloro-3-(methoxymethyl)-2′-methyl-1′-[[1-(2-methylsulfonylethyl)pyrazol-4-yl]methyl]spiro[4,5-dihydrothieno[2,3-c]pyran-7,4′-piperidine]] reads below 100 nM; that for `COCc1c(C(F)F)sc2c1CCO[C@@]21CCN(Cc2cnn(CCS(C)(=O)=O)c2)[C@@H](C)C1` [Compound 763, (2′S, 7R)-2-(difluoromethyl)-3-(methoxymethyl)-2′-methyl-1′-[[1-(2-methylsulfonylethyl)pyrazol-4-yl]methyl]spiro[4,5-dihydrothieno[2,3-c]pyran-7,4′-piperidine]], below 100 nM.
With `C[C@H]1C[C@@]2(CCN1Cc1cnn(CCS(C)(=O)=O)c1)OCCc1c2sc(C(F)F)c1CO` [Compound 764, [(2′S, 7R)-2-(difluoromethyl)-2′-methyl-1′-[[1-(2-methylsulfonylethyl)pyrazol-4-yl]methyl]spiro[4,5-dihydrothieno[2,3-c]pyran-7,4′-piperidine]-3-yl]methanol], the IC50 is below 100 nM.
For `Cc1sc2c(c1CO)CCO[C@@]21CCN(Cc2cnn(CCS(C)(=O)=O)c2)[C@@H](C)C1` [Compound 765, [(2′S, 7R)-2,2′-dimethyl-1′-[[1-(2-methylsulfonylethyl)pyrazol-4-yl]methyl]spiro[4,5-dihydrothieno[2,3-c]pyran-7,4′-piperidine]-3-yl]methanol], the IC50 was below 100 nM.
Turning to `C[C@H]1C[C@@]2(CCN1Cc1cccc(Cl)c1O)OC[C@H](O)c1cc(Cl)sc12` [Compound 766, (2′S,4R,7R)-2-chloro-1′-[(3-chloro-2-hydroxy-phenyl)methyl]-2′-methyl-spiro[4,5-dihydrothieno[2,3-c]pyran-7,4′-piperidine]-4-ol], the IC50 is 500 to 1000 nM.
